Measured values: patent US8232294B2, “Amino ester derivatives, sailts thereof and methods of use” (Sunshine Lake Pharma Co., Ltd., priority 2009, dated 2012)
Where a name gives a salt, the structure may show the parent alone.

What was measured:
[1] = system: U87MG tumors; assay: Human U87MG glioblastoma xenograft tumor model; assay type: in vivo, female nude mice (BALB/cA nu/nu); conditions: 21 days; for decrease of mean tumor volume (TGI): Day 21, vs vehicle
Experimental: In a pilot study, the efficacy of compounds disclosed herein was evaluated in a standard murine model of tumorigenesis. Human tumor cells were generated with human glioblastoma cells (U87MG cells, ATCC) and were grown as subcutaneous tumors in 6-7 week old female nude mice (BALB/cA nu/nu, Shanghai SLAC Laboratory Animal, Co.) (n=10 for vehicle group, n=8 for each dosing group). When tumors reached a volume of 100-200 mm^3, animals were randomly divided into vehicle control (2% HPMC+1% Tween-80 in water) and compound groups. Subsequent administration of compound by oral gavage (10-100 mpk/dose, dissolved in purified water or 2% HPMC+1% Tween-80 in water) begins anywhere from day 0 to day 15 post tumor cell challenge and generally continues with once a day for the duration of the experiment.
(§1) Progression of tumor growth is assessed by tumor volumes and recorded as a function of time. The long (L) and short (W) axes of the subcutaneous tumors were measured with calipers twice weekly, and the tumor volume (TV) calculated as (L×W^2)/2). TGI was calculated from the difference between the median tumor volumes of vehicle-treated and drug-treated mice, expressed as a percentage of the median tumor volume of the vehicle-treated control group, by the following relation:
(§2) Initial statistical analysis is done by repeated measures analysis of variance (RMANOVA). Followed by Scheffe psot hoc testing for multiple comparisons. Vehicle alone (2% HPMC+1% Tween-80, or the like) is the negative control. Compounds disclosed herein were generally active at or less than 100 mpk.

[2] = system: MKN45 tumors; assay: Human MKN45 gastric adenocarcinoma xenograft tumor model; assay type: in vivo, female nude mice (BALB/cA nu/nu); conditions: for decrease of mean tumor volume (TGI): Day 18, vs vehicle
Experimental: Xenografts were also generated with human gastric tumor cells (MKN45 cells, ATCC) and were grown as subcutaneous tumors in 6-7 week old female nude mice (BALB/cA nu/nu, Shanghai SLAC Laboratory Animal, Co.) (n=10 for vehicle group, n=8 for each dosing group). When tumors reached a volume of 60-150 mm^3, animals were randomly divided into vehicle control (2% HPMC+1% Tween-80 in water) and compound groups. Subsequent administration of compound by oral gavage (10-60 mpk/dose, dissolved in purified water or 2% HPMC+1% Tween-80 in water) begins anywhere from day 0 to day 15 post tumor cell challenge and generally continues with once a day for the duration of the experiment.
as §1, §2

Row | Structure (SMILES) | decrease of mean tumor volume (TGI) ([1]; 10 mg/kg p.o. QD) [%] | decrease of mean tumor volume (TGI) ([1]; 30 mg/kg p.o. QD) [%] | decrease of mean tumor volume (TGI) ([1]; 100 mg/kg p.o. QD) [%] | inhibition of growth of U87MG tumors ([1]; all doses: 10, 30 and 100 mg/kg p.o. QD) | decrease of mean tumor volume (TGI) ([2]; 10 mg/kg p.o. QD, 18 days) [%] | decrease of mean tumor volume (TGI) ([2]; 30 mg/kg p.o. QD, 18 days) [%] | decrease of mean tumor volume (TGI) ([2]; 60 mg/kg p.o. QD (dosed from days 0-10 and days 13-18)) [%] | inhibition of growth of MKN45 tumors ([2]; all doses: 10, 30 and 60 mg/kg p.o. QD, 18 days)
1 | COc1ccc2c(Oc3ccc(NC(=O)c4c(C)n(C[C@@H](C)OC(=O)CN)n(-c5ccccc5)c4=O)cc3F)ccnc2c1 [Example 53, (R)-1-(4-(3-fluoro-4-(7-methoxyquinolin-4-yloxy)phenylcarbamoyl)-5-methyl-3-oxo-2-phenyl-2,3-dihydropyrazol-1-yl)propan-2-yl 2-aminoacetate hydrochloride] | 47 | 76 | 99 | statistically significant, dose-dependent inhibition |  |  |  | 
2 | Cc1c(C(=O)Nc2ccc(Oc3ccnc4cc(OCC5(OC(=O)CN)CC5)ccc34)c(F)c2)c(=O)n(-c2ccccc2)n1C [Example 72, 1-((4-(4-(2,3-dimethyl-5-oxo-1-phenyl-2,5-dihydro-1H-pyrazole-4-carboxamido)-2-fluorophenoxy)quinolin-7-yloxy)methyl)cyclopropyl 2-aminoacetate hydrochloride] |  |  |  |  | 29 | 62 | 87 | statistically significant, dose-dependent inhibition
